The record followed here is patent US20080004302A1, “Novel Compounds” (ASTRAZENECA AB, priority 2006, published 2008).

For one experiment, the target named is FGFR1 kinase (Homo sapiens, UniProt P11362). Put plainly: Kinase assay (using Caliper technology). The following applies: FGFR1 kinase, Caliper; upper bound of bin; read-out: IC50. The class given is biochemical. Here is the method:
To determine inhibition of FGFR activity, kinase assays were conducted using Caliper technology.
Kinase activity assays were performed in Greiner 384-well low volume plates, with a total reaction volume of 12ul per well. […] The substrate for each assay was a custom peptide with fluorescent tag (13 amino acids in length) the sequence of which was specific for FGFR1 kinase.
Compounds were serially diluted in 5% (v/v) DMSO, before being added to assay plates.
Assay plates were incubated at room temperature for 1.5 h, before the reaction was stopped with the addition of buffer [comprising: 100 mM HEPES—pH7.5, 0.033% Brij-35, 0.22% Caliper Coating Reagent #3, 88mM EDTA, 5% DMSO]. Stopped assay plates were then read using the Caliper LabChip® LC3000 (which uses microfludics to measure a shift in mobility between fluorescent labelled peptide and the FGFR1 kinase—phosphorylated form of this peptide).

A further experiment has as its system Erk phosphorylation. Kind of experiment: Growth factor (bFGF) stimulated Erk phosphorylation in NIH 3T3 cells. Conditions: Mus musculus, NIH3T3, NIH 3T3 cells, 3 ng/ml bFGF; upper bound of bin.
The target of another experiment is T1, FGFR1 IIIc (Homo sapiens, UniProt P11362).
T1 construct: host or cells: Cos-1
T1 sequence (P11362 22-822): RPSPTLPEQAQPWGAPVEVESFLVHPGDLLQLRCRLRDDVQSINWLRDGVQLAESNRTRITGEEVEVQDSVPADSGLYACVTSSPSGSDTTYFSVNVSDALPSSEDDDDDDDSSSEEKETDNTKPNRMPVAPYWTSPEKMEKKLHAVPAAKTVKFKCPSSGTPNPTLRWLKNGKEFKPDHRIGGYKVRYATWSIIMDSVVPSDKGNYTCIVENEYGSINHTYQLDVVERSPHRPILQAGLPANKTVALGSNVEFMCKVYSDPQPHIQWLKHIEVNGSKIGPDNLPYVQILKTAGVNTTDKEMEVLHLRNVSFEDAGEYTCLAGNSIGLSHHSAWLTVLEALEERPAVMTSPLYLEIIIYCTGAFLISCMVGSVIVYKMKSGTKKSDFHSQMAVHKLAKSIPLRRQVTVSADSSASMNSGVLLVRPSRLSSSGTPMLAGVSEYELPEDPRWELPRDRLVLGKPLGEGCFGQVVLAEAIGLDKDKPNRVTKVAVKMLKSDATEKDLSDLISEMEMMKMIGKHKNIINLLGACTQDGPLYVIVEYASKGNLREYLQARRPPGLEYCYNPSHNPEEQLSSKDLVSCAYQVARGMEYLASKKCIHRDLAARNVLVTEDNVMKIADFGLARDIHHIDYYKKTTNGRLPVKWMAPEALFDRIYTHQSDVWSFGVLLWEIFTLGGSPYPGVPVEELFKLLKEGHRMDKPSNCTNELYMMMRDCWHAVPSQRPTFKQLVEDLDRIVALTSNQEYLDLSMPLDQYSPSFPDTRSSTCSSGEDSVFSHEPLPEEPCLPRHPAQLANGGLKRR
Put plainly: Cell based inhibition of transiently expressed FGFR1 IIIc phosphorylation via use of ECHO technology (Cos-1 cells). The following applies: Cos-1 cells, phospho-FGFR1, ECHO dosing; upper bound of bin; read-out: IC50. Here is the method: This assay is designed to detect inhibitors of transiently expressed FGFR1 phosphorylation by antibody staining of fixed cells detected using ArrayScan technology.
To undertake the assay, Cos-1 cells were harvested at 90-95% confluence for cell transfection. For each 96-well plate, 24μl Lipofectamine 2000 was added to 809 ul OptiMEM and incubated at room temperature for 5 minutes. […] Equal volumes of DNA and Lipofectamine 2000 were combined (DNA: Lipid=1:1.2 ratio) and incubated at room temperature for 20 minutes.
The harvested Cos-1 cells are counted using a coulter counter and diluted further with 1% FCS/DMEM to 2.5×10^5 cells/ml. For each 96-well, 8.33 ml cells were required. […] 70 μl of media was aspirated from the assay plate using the Quadra before the plate was transferred onto the ECHO 550. […] Compound transfer to the assay plate on the ECHO 550 was at concentration ranges 1)10 μM, 2) 3 μM, 3) 1 μM, 4) 0.3 μM, 5) 0.1 μM, 6) […].
The plates were gently tapped to mix compound in with the cell media and left to incubate at 37° C. with 5% CO2 for 1 hour.
Media was removed from the wells using vacuum aspiration; cells were fixed by adding 50 μl of 100% methanol to each well and incubated at room temperature for 20 minutes.
The plates were read on an Arrayscan (Cellomics).

The target of a further experiment is T2, human IGF1R (Homo sapiens, UniProt P08069).
T2 construct: expressed in transfected cells; host or cells: R+ cells (R- mouse fibroblasts transfected with human IGF1R)
T2 sequence (P08069 31-1367): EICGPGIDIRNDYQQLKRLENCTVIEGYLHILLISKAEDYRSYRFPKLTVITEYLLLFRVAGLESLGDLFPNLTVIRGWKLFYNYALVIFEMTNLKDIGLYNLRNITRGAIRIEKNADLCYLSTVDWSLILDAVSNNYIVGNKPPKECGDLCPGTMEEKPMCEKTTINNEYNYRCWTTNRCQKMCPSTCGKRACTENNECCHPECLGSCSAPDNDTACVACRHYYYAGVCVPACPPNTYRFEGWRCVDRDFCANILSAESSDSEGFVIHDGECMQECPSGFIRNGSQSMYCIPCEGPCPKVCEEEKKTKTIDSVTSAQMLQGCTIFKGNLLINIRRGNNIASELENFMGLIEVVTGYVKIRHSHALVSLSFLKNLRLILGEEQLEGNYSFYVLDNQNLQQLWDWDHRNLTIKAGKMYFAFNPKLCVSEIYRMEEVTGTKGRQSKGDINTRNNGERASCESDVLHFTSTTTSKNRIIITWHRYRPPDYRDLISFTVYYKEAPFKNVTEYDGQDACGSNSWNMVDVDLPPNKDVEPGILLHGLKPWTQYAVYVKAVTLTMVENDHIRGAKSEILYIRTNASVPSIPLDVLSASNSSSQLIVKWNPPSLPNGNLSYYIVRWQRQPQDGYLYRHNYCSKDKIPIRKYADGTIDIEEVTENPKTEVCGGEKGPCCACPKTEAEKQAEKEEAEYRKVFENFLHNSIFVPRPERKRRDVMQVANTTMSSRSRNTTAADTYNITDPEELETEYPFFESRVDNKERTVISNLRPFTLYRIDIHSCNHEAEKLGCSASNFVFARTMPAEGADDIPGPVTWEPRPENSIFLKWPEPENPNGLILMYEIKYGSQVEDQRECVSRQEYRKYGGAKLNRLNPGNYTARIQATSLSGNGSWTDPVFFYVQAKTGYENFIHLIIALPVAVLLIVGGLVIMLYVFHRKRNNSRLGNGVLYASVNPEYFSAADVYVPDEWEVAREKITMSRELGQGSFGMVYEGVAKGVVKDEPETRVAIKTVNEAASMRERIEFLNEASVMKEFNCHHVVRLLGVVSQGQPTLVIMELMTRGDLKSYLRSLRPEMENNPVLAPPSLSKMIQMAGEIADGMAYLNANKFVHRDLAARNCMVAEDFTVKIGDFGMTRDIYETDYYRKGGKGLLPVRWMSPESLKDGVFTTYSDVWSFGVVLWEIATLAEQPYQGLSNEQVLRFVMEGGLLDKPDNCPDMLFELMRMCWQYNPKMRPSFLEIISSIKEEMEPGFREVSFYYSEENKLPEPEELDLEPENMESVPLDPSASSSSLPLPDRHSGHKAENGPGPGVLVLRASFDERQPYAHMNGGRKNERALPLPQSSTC
Put plainly: Inhibition of insulin-like growth factor-1 receptor phosphorylation in R+ cells. It is filed as cell-based. The following applies: 30 nM IGF1, read-out: IGF cell class. The procedure: This immunofluorescence end point cell assay measures the ability of a test compound to reduce the measured levels of IGF1R phosphorylation after IGF1 stimulation in R^+ cells. […] were derived by transfection of R^− mouse fibroblast cells with human IGF1R.
(+5% CO2) incubator for 30 minutes.
Following the compound treatment, the R^+ cells were stimulated with a final concentration of 30 nM IGF1 (Gropep 1M001) for 20 minutes at 37° C. […] Plates were incubated for 1 hour at room temperature. […] Additionally, in-house antibodies raised against phospho […] were also used at a suitable titre determined for each batch.
The plates were incubated at room temperature for one hour. […] After addition of 100 μl/well PBS the plates were sealed with a black seal.
The Green Fluorescent phospho IGF1R -associated signal in each well was measured using an Acumen Explorer HTS Reader (TTP Labtech Ltd., Cambridge). […] The instrument is a laser-scanning fluorescence microplate cytometer, which samples the well at regular intervals and uses threshold algorithms to identify all fluorescent intensities above the solution background without the need to generate and analyse an image. These fluorescent objects can be quantified and provide a measure of the phospho IGF1R levels in cells. Fluorescence dose response data obtained with each compound was exported into a suitable software package (such as Origin) to perform curve fitting analysis. Phospho-IGF1R levels in response to compound treatment versus stimulated and unstimulated controls were expressed as an IC50 value.

Chain of FGFR1 kinase (P11362 22-822): as the sequence (P11362 22-822) above
Source text for Erk phosphorylation: These and other assays were used to evaluate the ability of a test compound to inhibit growth factor stimulated cellular signalling in mammalian cell lines. This was achieved by measuring the amount of receptor tyrosine kinase regulated Erk phosphorylation within a cell following compound treatment.
NIH 3T3 (ECACC, 93061524) cells were routinely passaged in DMEM (Gibco BRL, 41966) plus 10% foetal calf serum (FCS), 1% L-glutamine (Gibco BRL, 25030) to a confluence not greater than 80%. To undertake the assay, NIH 3T3's were seeded at 1×10^4 cells/well in DMEM plus 10% foetal calf serum, 1% L-glutamine in 96 well plates (Costar, 3904) and incubated at 37° C. (+5% CO2) in a humidified incubator. Once the cells had fully adhered (typically following 4-5 hours incubation) the media was removed from each well and the cells gently washed with 100μl warm serum free media. 90μl of serum free DMEM plus 1% L-glutamine was then added to each well and the plates were returned to a humidified 37° C. (+5% CO2) incubator. The following day, the plates were dosed with 10[l compound (diluted from 10 mM stock in DMSO using serum free DMEM) and the plates were returned to a humidified 37° C. (+5% CO2) incubator for one hour. NIH 3T3 cells were then stimulated with a final concentration of 3 ng/ml bFGF (Sigma, F029 1) for 20 minutes at 37° C. Following stimulation the cells were fixed by adding formaldehyde (4% v/v final concentration) and incubating at room temperature for 20 minutes. The fixative solution was then removed and the wells were washed twice with 100μl phosphate buffered saline (PBS/A) before permeabilising the cells by the addition of 50 μl/well 0.1% triton/PBS/A for 10 minutes at room temperature. The permeabilisation solution was then removed and the cells washed twice more with 100 μl/well PBS/A before the addition of 50 μl/well anti-phospho p44/42 (Cell Signalling Technology, 9106), diluted 1/500 with PBS/A plus 10% FCS. The anti-phospho p44/42 antibody recognises Erk phosphorylated at threonine 202 and tyrosine 204. […] Finally, the plates were washed three times with 100 μl/well PBS/A, leaving the final wash in the wells before sealing the plates. The plates were read at 350 nm and 488 nm using an Arrayscan (Cellomics).

On to `COCCCc1cc(Nc2ccnc(NCc3cc(C4CCC4)no3)n2)n[nH]1` [Example 23, N-[(3-Cyclobutyl1,2-oxazol-5-yl)methyl]-N′-[5-(3-methoxypropyl)-1H-pyrazol-3-yl]pyrimidine-2,4-diamine], for which the IC50 at FGFR1 kinase and in the experiment with Erk phosphorylation was less than 1 µM each time.
Regarding `COc1ccc(CCc2cc(Nc3ccnc(NCc4cc(-c5ncccn5)no4)n3)n[nH]2)cc1` [Example 32, N′-[5-[2-(4-methoxyphenyl)ethyl]-2H-pyrazol-3-yl]-N-[(3-pyrimidin-2-yl-1,2-oxazol-5-yl)methyl]pyrimidine-2,4-diamine], the values for the IC50 at FGFR1 kinase, at FGFR1 IIIc and on human IGF1R were less than 1 µM, less than 1 µM and 1 to 10 µM, respectively.
For `c1ccc(OCc2cc(Nc3ccnc(NCc4cc(C5CC5)no4)n3)[nH]n2)cc1` [Example 35, N-[(3-cyclopropyl1,2-oxazol-5-yl)methyl]-N′-[5-(phenoxymethyl)-2H-pyrazol-3-yl]pyrimidine-2,4-diamine], the IC50 on FGFR1 kinase is less than 10 µM; on human IGF1R, greater than 10 µM; in the experiment on Erk phosphorylation, less than 1 µM.
Consider `NC(=O)c1cc(CNc2nccc(Nc3cc(COc4ccccc4)n[nH]3)n2)on1` [Example 36, 5-[[[4-[[5-(phenoxymethyl)-2H-pyrazol-3-yl]amino]pyrimidin-2-yl]amino]methyl]1,2-oxazole-3-carboxamide], for which the IC50 on FGFR1 kinase was less than 10 µM; on FGFR1 IIIc, less than 30 µM; at human IGF1R it was greater than 10 µM.
Take `Cc1cc(CNc2nccc(Nc3cc(CCc4ccc(OCc5ccccc5)cc4)[nH]n3)n2)on1` [Example 37, N-[(3-methyl1,2-oxazol-5-yl)methyl]-N′-[5-[2-(4-phenylmethoxyphenyl)ethyl]-2H-pyrazol-3-yl]pyrimidine-2,4-diamine]: the IC50 at FGFR1 kinase was less than 30 µM; on human IGF1R, 1 to 10 µM; with Erk phosphorylation it was less than 10 µM.
With `NC(=O)c1cc(CNc2nccc(Nc3cc(CCc4ccccc4)n[nH]3)n2)on1` [Example 50, 5-[[[4-[(5-phenethyl-2H-pyrazol-3-yl)amino]pyrimidin-2-yl]amino]methyl]-1,2-oxazole-3-carboxamide], the IC50 on FGFR1 kinase was less than 1 µM; at FGFR1 IIIc, less than 10 µM; on human IGF1R, greater than 10 µM.
On to `Cc1cc(CNc2nccc(Nc3cc(CCc4cccc(N5CCOCC5)c4)[nH]n3)n2)on1` [Example 55, N-[(3-methyl1,2-oxazol-5-yl)methyl]-N′-[5-[2-(3-morpholin-4-ylphenyl)ethyl]-1H-pyrazol-3-yl]pyrimidine-2,4-diamine], for which the IC50 was less than 10 µM on FGFR1 kinase, greater than 10 µM on human IGF1R and less than 10 µM in the experiment on Erk phosphorylation.
Take `CCc1cccc(COc2cc(Nc3ccnc(NCc4cc(C)no4)n3)n[nH]2)c1` [Example 74, N′-[5-[(3-ethylphenyl)methoxy]-2H-pyrazol-3-yl]-N-[(3-methyl1,2-oxazol-5-yl)methyl]pyrimidine-2,4-diamine]: the values for the IC50 at FGFR1 kinase, at human IGF1R and with Erk phosphorylation were less than 10 µM, greater than 10 µM and less than 1 µM, respectively.
Turning to `COCC(C)Oc1cc(Nc2ccnc(NCc3cc(C4CC4)no3)n2)n[nH]1` (stereo not shown) [Example 76, N-[(3-cyclopropyl-1,2-oxazol-5-yl)methyl]-N′-[5-(1-methoxypropan-2-yloxy)-1H-pyrazol-3-yl]pyrimidine-2,4-diamine], the IC50 on human IGF1R was greater than 10 µM; in the experiment with Erk phosphorylation, less than 1 µM.
`CCOC(=O)c1cc(CNc2nccc(Nc3cc(OC(C)C)n[nH]3)n2)on1` [Example 77, Ethyl 5-[[[4-[(5-propan-2-yloxy-2H-pyrazol-3-yl)amino]pyrimidin-2-yl]amino]methyl]1,2-oxazole-3-carboxylate] registered an IC50 with Erk phosphorylation of less than 1 µM.
For the compound `CC(C)Oc1cc(Nc2ccnc(NCc3cc(C(=O)N(C)C)no3)n2)[nH]n1` [Example 80, N,N-dimethyl-5-[[[4-[(5-propan-2-yloxy-2H-pyrazol-3-yl)amino]pyrimidin-2-yl]amino]methyl]1,2-oxazole-3-carboxamide], the IC50 was less than 1 µM at FGFR1 kinase and less than 10 µM in the experiment on Erk phosphorylation.
For `CC(C)Oc1cc(Nc2ccnc(NCc3cc(-c4cncnc4)no3)n2)n[nH]1` [Example 81, N′-(5-propan-2-yloxy-2H-pyrazol-3-yl)-N-[(3-pyrimidin-5-yl1,2-oxazol-5-yl)methyl]pyrimidine-2,4-diamine], in that order: less than 10 µM and less than 10 µM.
For `CC(C)Oc1cc(Nc2ccnc(NCc3cc(C4CCOC4)no3)n2)[nH]n1` (stereo not shown) [Example 83, N-[[3-(oxolan-3-yl)1,2-oxazol-5-yl]methyl]-N′-(5-propan-2-yloxy-2H-pyrazol-3-yl)pyrimidine-2,4-diamine], in that order: less than 1 µM and less than 10 µM.
The matching figures for `CC(C)Oc1cc(Nc2ccnc(NCc3cc(C4CCOCC4)no3)n2)[nH]n1` [Example 85, N-[[3-(oxan-4-yl)1,2-oxazol-5-yl]methyl]-N′-(5-propan-2-yloxy-2H-pyrazol-3-yl)pyrimidine-2,4-diamine]: less than 10 µM and less than 10 µM.
Turning to `CCOc1cc(Nc2ccnc(NCc3cc(C)no3)n2)n[nH]1` [Example 86, N′-(5-ethoxy-1H-pyrazol-3-yl)-N-[(3-methyl1,2-oxazol-5-yl)methyl]pyrimidine-2,4-diamine], the IC50 on FGFR1 kinase was less than 0.2 µM; with Erk phosphorylation, less than 1 µM.
The matching figures for `Cc1cc(CNc2nccc(Nc3cc(OCc4cccc(C(=O)O)c4)[nH]n3)n2)on1` [Example 98, 3-[[5-[[2-[(3-methyl1,2-oxazol-5-yl)methylamino]pyrimidin-4-yl]amino]-1H-pyrazol-3-yl]oxymethyl]benzoic acid]: less than 10 µM and less than 10 µM.
As for `Cc1cc(CNc2nccc(Nc3cc(OCCOc4ccccc4)[nH]n3)n2)on1` [Example 101, N-[(3-methyl1,2-oxazol-5-yl)methyl]-N′-[5-(2-phenoxyethoxy)-2H-pyrazol-3-yl]pyrimidine-2,4-diamine], the results for the IC50 on FGFR1 kinase, on FGFR1 IIIc and on human IGF1R were less than 1 µM, less than 1 µM and greater than 10 µM, respectively.
As to `NC(=O)c1cc(CNc2nccc(Nc3cc(CCc4ccco4)n[nH]3)n2)on1` [Example 112, 5-[[[4-[[5-[2-(2-furyl)ethyl]-2H-pyrazol-3-yl]amino]pyrimidin-2-yl]amino]methyl]1,2-oxazole-3-carboxamide], the IC50 is less than 0.2 µM on FGFR1 kinase and less than 10 µM in the experiment on Erk phosphorylation.
`CNC(=O)c1cccc(CCc2cc(Nc3ccnc(NCc4cc(C)no4)n3)n[nH]2)c1` [Example 141, N-methyl-3-[2-[5-[[2-[(3-methyl-1,2-oxazol-5-yl)methylamino]pyrimidin-4-yl]amino]-1H-pyrazol-3-yl]ethyl]benzamide]: the results for the IC50 at FGFR1 kinase and on FGFR1 IIIc were less than 0.2 µM and less than 1 µM, respectively.
For `CNC(=O)c1cc(C)cc(CCc2cc(Nc3ccnc(NCc4cc(C)no4)n3)n[nH]2)c1` [Example 142, N,3-dimethyl-5-[2-[5-[[2-[(3-methyl-1,2-oxazol-5-yl)methylamino]pyrimidin-4-yl]amino]-1H-pyrazol-3-yl]ethyl]benzamide], in that order: less than 30 µM and less than 10 µM.
With `CNC(=O)c1cc(OC)cc(CCc2cc(Nc3ccnc(NCc4cc(C)no4)n3)n[nH]2)n1` [Example 143, 4-Methoxy-N-methyl-6-[2-[5-[[2-[(3-methyl-1,2-oxazol-5-yl)methylamino]pyrimidin-4-yl]amino]-1H-pyrazol-3-yl]ethyl]pyridine-2-carboxamide], the results for the IC50 on FGFR1 kinase and at FGFR1 IIIc were less than 10 µM and less than 30 µM, respectively.
